Measured values: patent US10722514B2 (FLX Bio, Inc., priority 2017, dated 2020)
Structures can show the parent of a compound that is named as a salt.

target: T1, recombinant full-length USP7 (Homo sapiens, UniProt Q93009); assay: USP7-mediated ubiquitin-rhodamine cleavage assay; format: biochemical; details: recombinant full-length USP7 62 pM; ubiquitin-rhodamine 100 nM; 30-minute incubation with compound, 1 hour reaction at room temperature; read-out: Potency: USP7 IC50
T1 construct: A 25 μl reaction volume containing recombinant full-length USP7 (62 pM)
T1 sequence (Q93009 whole entry): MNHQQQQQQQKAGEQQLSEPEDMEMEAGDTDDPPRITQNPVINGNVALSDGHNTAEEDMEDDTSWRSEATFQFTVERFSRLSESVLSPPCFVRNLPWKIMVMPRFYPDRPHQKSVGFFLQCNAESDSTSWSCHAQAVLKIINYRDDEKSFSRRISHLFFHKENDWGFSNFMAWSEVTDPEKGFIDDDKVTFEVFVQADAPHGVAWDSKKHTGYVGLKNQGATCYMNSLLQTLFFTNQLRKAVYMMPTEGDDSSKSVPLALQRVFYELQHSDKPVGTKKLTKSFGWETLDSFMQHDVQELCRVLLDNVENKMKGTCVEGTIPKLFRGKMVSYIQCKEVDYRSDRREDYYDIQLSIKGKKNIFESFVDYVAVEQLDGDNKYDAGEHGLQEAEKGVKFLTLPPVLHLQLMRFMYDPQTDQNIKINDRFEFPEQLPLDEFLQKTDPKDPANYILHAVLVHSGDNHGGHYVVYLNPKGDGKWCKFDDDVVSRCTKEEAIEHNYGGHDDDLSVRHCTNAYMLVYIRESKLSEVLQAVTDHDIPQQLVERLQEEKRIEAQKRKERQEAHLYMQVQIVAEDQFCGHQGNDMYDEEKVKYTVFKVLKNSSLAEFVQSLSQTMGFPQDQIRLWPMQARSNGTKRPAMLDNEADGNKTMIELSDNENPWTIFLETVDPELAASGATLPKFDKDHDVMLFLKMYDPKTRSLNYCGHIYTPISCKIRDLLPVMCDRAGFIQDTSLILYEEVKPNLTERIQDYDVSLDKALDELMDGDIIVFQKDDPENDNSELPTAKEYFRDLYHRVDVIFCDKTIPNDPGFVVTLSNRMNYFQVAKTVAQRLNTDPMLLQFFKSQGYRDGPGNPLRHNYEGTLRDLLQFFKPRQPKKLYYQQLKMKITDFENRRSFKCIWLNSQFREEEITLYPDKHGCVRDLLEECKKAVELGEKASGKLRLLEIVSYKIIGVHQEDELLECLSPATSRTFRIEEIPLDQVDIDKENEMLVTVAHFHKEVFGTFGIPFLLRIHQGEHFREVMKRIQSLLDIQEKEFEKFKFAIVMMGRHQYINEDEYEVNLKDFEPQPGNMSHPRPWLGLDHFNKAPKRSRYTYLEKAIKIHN
In short: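 Full-length recombinant USP7 (62 pM) in 20 mM HEPES pH 7.3, 150 mM NaCl, 1 mM TCEP, 125 μg/ml BSA, 1% DMSO, preincubated with compound 30 min at RT. Ubiquitin-rhodamine (100 nM final) cleaved 1 h at RT in the dark, stopped with acetic acid; rhodamine fluorescence read, IC50 by 4-parameter nonlinear fit.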

IC50 [µM] | Structure (SMILES)
< 1 | CCN1C[C@H]2C[C@@H]1[C@H](Oc1c(C)cc(Cl)cc1-c1ccnc3cc(CN4C(=O)CCC4=O)sc13)C2 [Example 321, 1-[[7-[5-chloro-2-[[(1S,4R,5R)-3-ethyl-3-azabicyclo[2.2.1]heptan-5-yl]oxy]-3-methyl-phenyl]thieno[3,2-b]pyridin-2-yl]methyl]pyrrolidine-2,5-dione]
10 to 30 | Cc1cc(Cl)cc(-c2ccnc3cc(CCN4C(=O)c5ccccc5S4(=O)=O)sc23)c1O[C@@H]1CNC[C@@H]1F [Example 139, 2-(2-(7-(5-Chloro-2-(((3R,4S)-4-fluoropyrrolidin-3-yl)oxy)-3-methylphenyl)thieno[3,2-b]pyridin-2-yl)ethyl)benzo[d]isothiazol-3(2H)-one 1,1-dioxide]
1 to 10 | CCC(O)c1cc2nccc(-c3cc(Cl)cc(C)c3O[C@H]3CCCNC3)c2s1 (stereo partly drawn) [Example 164, 1-(7-(5-Chloro-3-methyl-2-(((S)-piperidin-3-yl)oxy)phenyl)thieno[3,2-b]pyridin-2-yl)propan-1-ol]
< 1 | Cc1cc(Cl)cc(-c2ncnc3cc(CN4C(=O)CC(C)(C)C4=O)sc23)c1O[C@@H]1CNC[C@@H]1F [Example 380, 1-[[4-[5-chloro-2-[(3R,4S)-4-fluoropyrrolidin-3-yl]oxy-3-methyl-phenyl]thieno[3,2-d]pyrimidin-6-yl]methyl]-3,3-dimethyl-pyrrolidine-2,5-dione; 2,2,2-trifluoroacetic acid]
10 to 30 | Cc1cc(Cl)cc(-c2ccnc3cc(CO)sc23)c1OCC1CCCNC1 (stereo not drawn) [Example 189, (7-(5-Chloro-3-methyl-2-(piperidin-3-ylmethoxy)phenyl)thieno[3,2-b]pyridin-2-yl)methanol]
< 1 | Cc1cc(Cl)cc(-c2ncnc3cc(CN4C(=O)C5C(C4=O)C5(C)C)sc23)c1O[C@@H]1C[C@@H]2C[C@H]1N(C)C2 (stereo partly drawn) [Example 390, 3-[[4-[5-chloro-3-methyl-2-[[(1S,4R,5R)-3-methyl-3-azabicyclo[2.2.1]heptan-5-yl]oxy]phenyl]thieno[3,2-d]pyrimidin-6-yl]methyl]-6,6-dimethyl-3-azabicyclo[3.1.0]hexane-2,4-dione dihydrochloride]
1 to 10 | CCC(O)c1cc2nccc(-c3cc(Cl)cc(C)c3OC3CCCNCC3)c2s1 (stereo not drawn) [Example 267, 1-(7-(2-(Azepan-4-yloxy)-5-chloro-3-methylphenyl)thieno[3,2-b]pyridin-2-yl)propan-1-ol]
1 to 10 | OCc1cc2nccc(-c3cc(Cl)cc(C4CC4)c3OCC3CNC3)c2s1 [Example 23, (7-(2-(Azetidin-3-ylmethoxy)-5-chloro-3-cyclopropylphenyl)thieno[3,2-b]pyridin-2-yl)methanol]
< 1 | Cc1cc(Cl)cc(-c2ccnc3cc(CN4C(=O)C5C(C4=O)C5(C)C)sc23)c1OC1CNCC1(C)F (stereo not drawn) [Example 372, 3-[[7-[5-chloro-2-(4-fluoro-4-methyl-pyrrolidin-3-yl)oxy-3-methyl-phenyl]thieno[3,2-b]pyridin-2-yl]methyl]-6,6-dimethyl-3-azabicyclo[3.1.0]hexane-2,4-dione dihydrochloride]
< 1 | CN[C@@H]1CC[C@@H](Oc2c(C)cc(Cl)cc2-c2ccnc3cc(CN4C(=O)CCC4=O)sc23)C1 [Example 53, 1-((7-(5-Chloro-3-methyl-2-(((1R,3R)-3-(methylamino)cyclopentyl)oxy)phenyl)thieno[3,2-b]pyridin-2-yl)methyl)pyrrolidine-2,5-dione]
< 1 | O=C1CCC(=O)N1Cc1cc2nccc(-c3cc(C(F)(F)F)cc(Cl)c3O[C@@H]3CNC[C@@H]3F)c2s1 [Example 54, 1-((7-(3-Chloro-2-(((3R,4S)-4-fluoropyrrolidin-3-yl)oxy)-5-(trifluoromethyl)phenyl)thieno[3,2-b]pyridin-2-yl)methyl)pyrrolidine-2,5-dione]
< 1 | Cc1cc(Cl)cc(-c2ccnc3cc(Cn4c(=O)ccn(CC(F)(F)F)c4=O)sc23)c1OC1(C(F)(F)F)CCCNC1 (stereo not drawn) [Example 274, 3-((7-(5-Chloro-3-methyl-2-((3-(trifluoromethy)piperidin-3-yl)oxy)phenyl)thieno[3,2-b]pyridin-2-yl)methyl)-1-(2,2,2-trifluoroethyl)pyrimidine-2,4(1H,3H)-dione]
1 to 10 | Cc1cc(Cl)cc(-c2ccnc3cc(CO)sc23)c1OC1CCC12CNC2 (stereo not drawn) [Example 49, (7-(2-((2-Azaspiro[3.3]heptan-5-yl)oxy)-5-chloro-3-methylphenyl)thieno[3,2-b]pyridin-2-yl)methanol]
< 1 | Cc1cc(Cl)cc(-c2ccnc3cc(Cn4c(=O)ccn(C(C)C)c4=O)sc23)c1O[C@@H]1CNC[C@@H]1C [Example 329, 3-[[7-[5-chloro-3-methyl-2-[(3S,4S)-4-methylpyrrolidin-3-yl]oxy-phenyl]thieno[3,2-b]pyridin-2-yl]methyl]-1-isopropyl-pyrimidine-2,4-dione]
< 1 | Cc1cc(Cl)cc(-c2ncnc3cc(Cn4c(=O)ccn(CC(F)(F)F)c4=O)sc23)c1O[C@@H]1CCNC[C@@H]1F [Example 170, 3-((4-(5-Chloro-2-(((3S,4R)-3-fluoropiperidin-4-yl)oxy)-3-methylphenyl)thieno[3,2-d]pyrimidin-6-yl)methyl)-1-(2,2,2-trifluoroethyl)pyrimidine-2,4(1H,3H)-dione]

same assay, conditions: recombinant full-length USP7 62 pM; ubiquitin-rhodamine 100 nM; 30-minute pre-incubation, 1 hour reaction at room temperature; read-out: Potency (USP7 IC50)

IC50 [µM] | Structure (SMILES)
< 1 | O=C1CCC(=O)N1Cc1cc2nccc(-c3cc(Cl)cc(C(F)F)c3O[C@@H]3CNC[C@@H]3F)c2s1 [Example 428, 1-[[7-[5-chloro-3-(difluoromethyl)-2-[(3R,4S)-4-fluoropyrrolidin-3-yl]oxy-phenyl]thieno[3,2-b]pyridin-2-yl]methyl]pyrrolidine-2,5-dione]
< 1 | Cc1cc(Cl)cc(-c2ccnc3cc(Cn4c(=O)ccn(C)c4=O)sc23)c1OC1CCCN(C(C)C)C1 (stereo not drawn) [Example 505, 3-[[7-[5-chloro-2-[(1-isopropyl-3-piperidyl)oxy]-3-methyl-phenyl]thieno[3,2-b]pyridin-2-yl]methyl]-1-methyl-pyrimidine-2,4-dione]
< 1 | Cc1cc(Cl)cc(-c2ncnc3cc(Cn4c(=O)ccn(CC(F)(F)F)c4=O)sc23)c1O[C@H]1CC[C@H](C)NC1 [Example 562, 3-[[4-[5-chloro-3-methyl-2-[[(3S,6S)-6-methyl-3-piperidyl]oxy]phenyl]thieno[3,2-d]pyrimidin-6-yl]methyl]-1-(2,2,2-trifluoroethyl)pyrimidine-2,4-dione; 2,2,2-trifluoroacetic acid]
< 1 | Cc1cc(Cl)cc(-c2ncnc3cc(Cn4c(=O)ccn(C(C)C)c4=O)sc23)c1O[C@H]1CCCNC1 [Example 489, 3-[[4-[5-chloro-3-methyl-2-[[(3S)-3-piperidyl]oxy]phenyl]thieno[3,2-d]pyrimidin-6-yl]methyl]-1-isopropyl-pyrimidine-2,4-dione]
< 1 | Cc1cc(Cl)cc(-c2ccnc3cc(Cn4c(=O)ccn(CC(F)(F)F)c4=O)sc23)c1O[C@@H]1CNC[C@H](F)C1 [Example 623, 3-[[7-[5-chloro-2-[[(3S,5R)-5-fluoro-3-piperidyl]oxy]-3-methyl-phenyl]thieno[3,2-b]pyridin-2-yl]methyl]-1-(2,2,2-trifluoroethyl)pyrimidine-2,4-dione; 2,2,2-trifluoroacetic acid]
< 1 | Cc1cc([N+](=O)[O-])cc(-c2ccnc3cc(Cn4c(=O)ccn(C)c4=O)sc23)c1O[C@H]1CCCNC1 [Example 573, 1-methyl-3-[[7-[3-methyl-5-nitro-2-[[(3S)-3-piperidyl]oxy]phenyl]thieno[3,2-b]pyridin-2-yl]methyl]pyrimidine-2,4-dione; 2,2,2-trifluoroacetic acid]
< 1 | CCN1CCCC(Oc2c(C)cc(Cl)cc2-c2ccnc3cc(Cn4c(=O)ccn(C)c4=O)sc23)C1 (stereo not drawn) [Example 504, 3-[[7-[5-chloro-2-[(1-ethyl-3-piperidyl)oxy]-3-methyl-phenyl]thieno[3,2-b]pyridin-2-yl]methyl]-1-methyl-pyrimidine-2,4-dione]
< 1 | Cc1cc(Cl)cc(-c2ncnc3cc(Cn4c(=O)ccn(CC(F)(F)F)c4=O)sc23)c1O[C@@H]1CNC[C@@H]1C [Example 595, 3-[[4-[5-chloro-3-methyl-2-[(3S,4S)-4-methylpyrrolidin-3-yl]oxy-phenyl]thieno[3,2-d]pyrimidin-6-yl]methyl]-1-(2,2,2-trifluoroethyl)pyrimidine-2,4-dione]
< 1 | CCn1ccc(=O)n(Cc2cc3ncnc(-c4cc(Cl)cc(C)c4O[C@H]4CCCNC4)c3s2)c1=O [Example 440, 3-[[4-[5-chloro-3-methyl-2-[[(3S)-3-piperidyl]oxy]phenyl]thieno[3,2-d]pyrimidin-6-yl]methyl]-1-ethyl-pyrimidine-2,4-dione; 2,2,2-trifluoroacetic acid]
< 1 | Cc1cc(Cl)cc(-c2ccnc3cc(Cn4c(=O)ccn(CC(F)(F)F)c4=O)sc23)c1OC1CNCC[C@@]1(C)F (stereo partly drawn) [Example 405, 3-[[7-[5-chloro-2-[[(4R)-4-fluoro-4-methyl-3-piperidyl]oxy]-3-methyl-phenyl]thieno[3,2-b]pyridin-2-yl]methyl]-1-(2,2,2-trifluoroethyl)pyrimidine-2,4-dione; 2,2,2-trifluoroacetic acid]
< 1 | COC(=O)N1CC[C@@H](Oc2c(C)cc(Cl)cc2-c2ccnc3cc(Cn4c(=O)ccn(CC(F)(F)F)c4=O)sc23)[C@@H](C)C1 [Example 643, methyl (3S,4R)-4-[4-chloro-2-[2-[[2,6-dioxo-3-(2,2,2-trifluoroethyl)pyrimidin-1-yl]methyl]thieno[3,2-b]pyridin-7-yl]-6-methyl-phenoxy]-3-methyl-piperidine-1-carboxylate]

Structure (SMILES) | IC50 [µM]
Cc1cc(Cl)cc(-c2ccnc3cc(Cn4c(=O)ccn(CC(F)(F)F)c4=O)sc23)c1OC1(C)CC(N)C1 (stereo not drawn) [Example 640, 3-[[7-[2-(3-amino-1-methyl-cyclobutoxy)-5-chloro-3-methyl-phenyl]thieno[3,2-b]pyridin-2-yl]methyl]-1-(2,2,2-trifluoroethyl)pyrimidine-2,4-dione] | < 1
